Two compounds from PMC5671890 (Journal of molecular medicine (Berlin, Germany), 2017) can be followed below.

Values after ≈ are worked out from the molar mass of the structure shown. Counter-ions that a name gives are not always drawn. Positions of bridges follow the written chain, without caps; N, C: chain ends. Non-standard residues stand in square brackets, D forms with d. Residues, ends and D or L forms follow the SMILES beside them. *: point of attachment. X1 = CC[C@H](C)CCCCC(=O)*; Dab = NCC[C@H](N)C(=O)O

One may read the MIC as the lowest concentration that inhibits growth of the organism. Read a high MIC as weaker potency.

What all share (type): cell-based
Common to all, as to settings: cation-adjusted Mueller Hinton broth, serial 2-fold dilutions, repeated 3 times

The subject of experiment [1] is Pseudomonas aeruginosa PAO1 Wt.
For experiment [2], the system named is Pseudomonas aeruginosa PAO1 vacJ− mutant.
The test system of experiment [3] is Pseudomonas aeruginosa PAO1 vacJ−:vacJ complemented strain.

As to `CC[C@H](C)CCCCC(=O)N[C@@H](CCN)C(=O)N[C@H](C(=O)N[C@@H](CCN)C(=O)N[C@H]1CCNC(=O)[C@H]([C@@H](C)O)NC(=O)[C@H](CCN)NC(=O)[C@H](CCN)NC(=O)[C@H](CC(C)C)NC(=O)[C@@H](Cc2ccccc2)NC(=O)[C@H](CCN)NC1=O)[C@@H](C)O` [Polymyxin B] (X1-[Dab]T[Dab][Dab][Dab][dF]L[Dab][Dab]T; lactam 4-C (inferred); N-terminus assumed), the MIC is 0.5 µg/mL (≈ 0.415 µM) in experiment [1], 0.25 µg/mL (≈ 0.208 µM) in experiment [2] and 0.5 µg/mL (≈ 0.415 µM) in experiment [3].

As to `CC[C@H](C)CCCCC(=O)N[C@@H](CCN)C(=O)N[C@H](C(=O)N[C@@H](CCN)C(=O)N[C@H]1CCNC(=O)[C@H]([C@@H](C)O)NC(=O)[C@H](CCN)NC(=O)[C@H](CCN)NC(=O)[C@H](CC(C)C)NC(=O)[C@@H](CC(C)C)NC(=O)[C@H](CCN)NC1=O)[C@@H](C)O` [Colistin, colistin sulfate] (X1-[Dab]T[Dab][Dab][Dab][dL]L[Dab][Dab]T; lactam 4-C (inferred); N-terminus assumed), the MIC in experiment [1] amounted to 1 µg/mL; in experiment [2], 0.5 µg/mL; in experiment [3] it was 1 µg/mL.
